Test system: sheep T4 antibody (gamma globulin / IgG fraction from sheep antiserum)
Assay: Binding constant of T4 antibody binding sites (footnote to Table I, antibody modulation of STI-T4)
Conditions: approximately 7.4 × 10^-8 M antibody binding sites; gamma globulin chromatographically isolated from sheep T4 antibody
Procedure: A working solution of 2.0 mg/ml gamma globulin (chromatographically isolated from sheep T4 antibody) is prepared in 0.1 M HEPES (N-2-hydroxyethylpiperazine-N'-2-ethanesulfonic acid) buffer, pH 8.0, containing 0.1% gelatin. A stock solution of the STI-T4 (soybean trypsin inhibitor-thyroxine) conjugate (8×10^-7 M) is also prepared in HEPES-gelatin buffer, pH 8.0. A trypsin stock solution is made at 1×10^-7 M in dilute HCl, pH 3.0, and stored at 4° C. The trypsin working reagent is diluted to a concentration of 8.2×10^-8 M with HCl gelatin, pH 3.0. Equal volumes (50 μl) of the thyroxine STI conjugate and antibody are mixed and incubated at room temperature for 5 minutes. Trypsin is then added to the mixture, incubated for 30 seconds, and a 25 μl portion of the assay mixture diluted into a cuvette with 250 μl of substrate (0.5 mM benzoylphenylalanylvalyl arginine p-nitroaniline in 0.05 M Tris pH 8.1 with 0.01 M CaCl2). The change in absorbance with time (t=5.5 minutes less t=0.5 minutes) is recorded using a Bichromatic Analyzer equipped with a 380/450 mμ filter. The following table gives the results for a suitable conjugate prepared in Example I.
A working solution of 1 mg/ml anti-T4 IgG (from sheep antiserum) is prepared in barbital buffer with gelatin. The approximate concentration of binding sites from […] analysis is 1.2×10^-7 M.

Compound: N[C@@H](Cc1cc(I)c(Oc2cc(I)c(O)c(I)c2)c(I)c1)C(=O)O [thyroxine]
- K (antibody binding sites): ~1.3 × 10^9
